Patent US12559504B2, “Benzotriazole derivative” (UBE CORPORATION, priority 2019, dated 2026)

Legend:
[1] = target: T1, GST fusion human Keap1 (amino acid residue: 325-624) protein (Homo sapiens, UniProt Q14145); assay: Keap1-Nrf2 binding inhibition test (fluorescence polarization); details: compound concentration of 100 nM; read-out: inhibition rate
T1 construct: GST fusion human Keap1 (amino acid residue: 325-624) protein; purchased Protein tech Ag0779
Description: The inhibitory activity of each test compound on the binding between Nrf2 and Keap1 was measured by the fluorescence polarization method. A solution consisting of 20 mM tris-hydrochloride pH7.5 (NIPPON GENE CO., LTD., REF: 318-90225), 150 mM NaCl [FUJIFILM Wako Pure Chemical. Corporation, REF: 191-01665], 0.05% Tween 20 (BioRAD, REF: 161-0781), and 5 mM DTT (FUJIFILM Wako Pure Chemical Corporation, REF: 049-08972) was used as a buffer solution. To a test compound solution (70 μL) adjusted to each concentration with 10% DMSO (FUJIFILM Wako Pure Chemical Corporation, REF: 043-07216) was added a buffer solution (350 μL) comprising 6 nM FITC-labeled Nrf2 peptide (FITC-Ahx-LDEETGEFL-NH2, Invitrogen) and 0.2 mg/mL of BSA (FUJIFILM Wako Pure Chemical Corporation, REF: 017-22231). Each 120 μL of the resulting mixture was dispensed into a black 96 well plate, and a buffer solution (80 μL) comprising 2.5 nM GST fusion human Keap1 (amino acid residue: 325-624) protein (Protein tech, REF: Ag0779) was added thereto. A Keap1-free buffer solution was added to some wells to prepare negative controls. Meanwhile, compound-free wells were used as positive controls. The plate was incubated at room temperature for 30 minutes, and each fluorescence polarization at excitation wavelength of 482 nm and fluorescence wavelength of 530 nm was measured by using a plate reader Clariostar (BMG Labtech). The fluorescence polarization of the negative control was set to be 100% inhibition, fluorescence polarization of the positive control was set to be 0% inhibition, and the inhibition rate of each test compound at 100 nM was calculated by using the following equation. Inhibition rate (%)=100−((Fluorescence polarization when test compound was added−Fluorescence polarization of negative control)/(Fluorescence polarization of positive control−Fluorescence polarization of negative control))×100

NQO1 = NQO1 expression induction test in mouse kidney (single administration); type: in vivo; details: BALB/c mouse kidney, 6 hours after administration, ratio to control group; for fold induction at 10 mg/kg: Mus musculus, po, 6 h
Description: Each test compound solution for administration was prepared by dissolving or suspending each test compound into a 0.5 w/v % aqueous solution of methylcellulose (0.5% MC) (manufactured by Wako Pure Chemical Industries, Ltd.).
Each prepared test compound was orally administered to a BALB/c mouse (female, provided by Charles River Laboratories Japan, Inc.). Non-treated group was used as a control group. After 6 hours from the administration, each mouse was anesthetized with isoflurane, and euthanized with bloodletting by incising a lower aorta. Immediately, the left kidney was excised, cut into small pieces, and then the cut kidney pieces were transferred to RNA later (Thermo Fisher Scientific).
Then, mRNA was extracted from the collected kidney pieces by using NucleoSpin (registered trademark) RNA Kit (Takara Bio Inc.), each concentration was quantified by FlexStation3 (Molecular Devices), and then the concentration was adjusted to a constant concentration. A reverse transcription synthesis of cDNA was carried out from the mRNA with the constant concentration by using PrimeScript™ RT reagent Kit with gDNA Eraser and PCR Thermal Cycler (Takara Bio Inc.). Then, in addition to the resulting cDNA, SYBR (registered trademark) Premix Ex Taq™ II and NQO1, GAPDH primer (Takara Bio Inc.) were used to carry out Real-time PCR by PCR Thermal Cycler Dice Real time (Takara Bio Inc.), and the NQO1 expression was quantified by using the GAPDH expression as the reference.
In order to evaluate the NQO1 expression induction in each group, the NQO1 expression induction ratio was calculated by using the following equation. (NQO1 expression induction ratio)=(Average NQO1 expression in test compound administered group)[…](Average NQO1 expression in control group)

[2] = Metabolism test using human liver microsome fractions; type: in vitro ADME; details: human liver microsomes, test compound 10 μmol/L, NADPH and UDP-glucuronic acid, 37° C.
Description: A reaction composition solution (comprising NADPH Regenerating System, Solution A (manufactured by Corning Inc., REF. 451220) (50 μL), NADPH Regenerating System, Solution B (manufactured by Corning Inc., REF. 451200) (10 μL), 250 mM UDP-glucuronic acid (40 μL), UGT Reaction Mix Solution B (manufactured by Corning Inc., REF. 451320) (200 μL), and distilled water (640 μL)) in which human liver microsomes (manufactured by Xenotech, Cat. No. H610) or monkey liver microsomes (manufactured by Xenotech, Cat. No. P2000) (corresponding to 1 mg of protein) were suspended was prepared. After the solution was incubated at 37° C. for 5 minutes, each test compound dissolved into DMSO (manufactured by FUJIFILM Wako Pure Chemical Corporation, Code No. 043-07216) was added to the solution so that the final concentration was set to be 10 μmol/L, and a reaction was initiated. After 0, 5, 10, 15, 20, and 30 minute(s) from the initiation of the metabolism reaction, 100 μL of the reaction solution was taken out of the reaction system, and added to 200 μL of acetonitrile to stop the reaction. After the reaction was completed, the reaction solution was subjected to a work-up such as deproteinization, and then subjected to an UV-HPLC analysis to carry out the following analysis.
The peak area of each test compound was calculated by LabSolution software (Shimadzu Corporation), and the residual ratio (%) at each culture time of test material was calculated by the following equation. Residual ratio (%)=Peak area at each culture time[…]Peak area at 0 (initial time)
Next, the residual amount (nmol/mg/mL) at each culture time of test material was calculated by the following equation. Residual amount (nmol/mg/mL)=Initial concentration of reaction solution (10 nmol/mg/mL)×residual ratio÷100
Finally, a graph in which the reaction time was plotted at horizontal axis and the residual amount was plotted at longitudinal axis was prepared on Excel, and the inclination was calculated as the elimination rate (pmol/min/mg-P) within the time range in which the graph was deemed linear.

T1 sequence (Q14145 325-624): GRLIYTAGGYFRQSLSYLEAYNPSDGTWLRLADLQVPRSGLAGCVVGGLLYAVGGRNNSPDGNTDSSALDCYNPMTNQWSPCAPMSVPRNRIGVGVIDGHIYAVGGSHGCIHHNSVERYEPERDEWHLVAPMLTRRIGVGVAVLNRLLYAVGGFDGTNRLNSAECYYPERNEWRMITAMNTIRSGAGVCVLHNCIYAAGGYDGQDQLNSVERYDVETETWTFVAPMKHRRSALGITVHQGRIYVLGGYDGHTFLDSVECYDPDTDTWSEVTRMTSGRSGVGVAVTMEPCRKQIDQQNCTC

CC[C@@H]1CN(Cc2cc(C(c3ccc4c(nnn4C)c3C)C(C)(C)C(=O)O)ccc2C)Cc2cc3c(cc2O1)OC(F)(F)O3 (single isomer, unassigned) [Example 29]
inhibition at 0.1 µM [1]: ≥ 50%
fold induction at 10 mg/kg (NQO1): > 6
Human metabolic rate [2]: A (metabolic rate<100 pmol/min/mg protein)

CC[C@@H]1CN(Cc2cc(C(c3ccc4c(nnn4C)c3C)C(C)(C)C(=O)O)ccc2C)Cc2cc3c(cc2O1)OC(F)(F)O3 (single isomer, unassigned) [Example 30]
Human metabolic rate [2]: E (metabolic rate≥250 pmol/min/mg protein)

CC[C@@H]1CN(Cc2cc(C(c3ccc4c(nnn4C)c3C)C(C)(C)C(=O)O)ccc2C)Cc2cc3c(cc2O1)CCC3 (single isomer, unassigned) [Example 31]
inhibition at 0.1 µM [1]: ≥ 50%
fold induction at 10 mg/kg (NQO1): 3 to 6
Human metabolic rate [2]: B (100≤metabolic rate<150 pmol/min/mg protein)

CC[C@@H]1CN(Cc2cc(C(c3ccc4c(nnn4C)c3C)C(C)(C)C(=O)O)ccc2C)Cc2cc3c(cc2O1)CCC3 (single isomer, unassigned) [Example 32]
Human metabolic rate [2]: D (200≤metabolic rate<250 pmol/min/me protein)

CC[C@@H]1CN(Cc2cc(C(c3ccc4c(nnn4C)c3C)C(C)(C)C(=O)O)ccc2C)Cc2cc3c(cc2O1)CCCC3 (single isomer, unassigned) [Example 33]
inhibition at 0.1 µM [1]: ≥ 50%
fold induction at 10 mg/kg (NQO1): 3 to 6
Human metabolic rate [2]: A (metabolic rate<100 pmol/min/mg protein)

CC[C@@H]1CN(Cc2cc(C(c3ccc4c(nnn4C)c3C)C(C)(C)C(=O)O)ccc2C)Cc2cc3c(cc2O1)CCCC3 (single isomer, unassigned) [Example 34]
Human metabolic rate [2]: C (150≤metabolic rate<200 pmol/min/mg protein)

CC[C@@H]1CN(Cc2cc(C(c3ccc4c(nnn4C)c3C)C(C)(C)C(=O)O)ccc2C)Cc2ccc3c(c2O1)CCC3 (single isomer, unassigned) [Example 35]
inhibition at 0.1 µM [1]: ≥ 50%
fold induction at 10 mg/kg (NQO1): > 6
Human metabolic rate [2]: B (100≤metabolic rate<150 pmol/min/mg protein)

CC[C@@H]1CN(Cc2cc(C(c3ccc4c(nnn4C)c3C)C(C)(C)C(=O)O)ccc2C)Cc2ccc3c(c2O1)CCC3 (single isomer, unassigned) [Example 36]
Human metabolic rate [2]: C (150≤metabolic rate<200 pmol/min/mg protein)

CC[C@@H]1CN(Cc2cc(C(c3ccc4c(nnn4C)c3C)C(C)(C)C(=O)O)ccc2C)Cc2nc3ccccc3cc2O1 (single isomer, unassigned) [Example 37]
inhibition at 0.1 µM [1]: ≥ 50%
fold induction at 10 mg/kg (NQO1): > 6
Human metabolic rate [2]: A (metabolic rate<100 pmol/min/mg protein)

CC[C@@H]1CN(Cc2cc(C(c3ccc4c(nnn4C)c3C)C(C)(C)C(=O)O)ccc2C)Cc2nc3ccccc3cc2O1 (single isomer, unassigned) [Example 38]
Human metabolic rate [2]: E (metabolic rate≥250 pmol/min/mg protein)

CC[C@@H]1CN(Cc2cc(C(c3ccc4c(nnn4C)c3C)C(C)(C)C(=O)O)ccc2C)Cc2cc3cccnc3cc2O1 (single isomer, unassigned) [Example 40]
Human metabolic rate [2]: E (metabolic rate≥250 pmol/min/mg protein)

CC[C@@H]1CN(Cc2cc(C(c3ccc4c(nnn4C)c3C)C(C)(C)C(=O)O)ccc2C)Cc2cc3ncccc3cc2O1 (single isomer, unassigned) [Example 42]
Human metabolic rate [2]: E (metabolic rate≥250 pmol/min/mg protein)

CC[C@@H]1CN(Cc2cc(C(c3ccc4c(nnn4C)c3C)C(C)(C)C(=O)O)ccc2C)Cc2c(ccc3cn[nH]c23)O1 (single isomer, unassigned) [Example 44]
Human metabolic rate [2]: E (metabolic rate≥250 pmol/min/mg protein)

CC[C@@H]1CN(Cc2cc(C(c3ccc4c(nnn4C)c3C)C(C)(C)C(=O)O)ccc2C)Cc2ncc3ccccc3c2O1 (single isomer, unassigned) [Example 46]
Human metabolic rate [2]: E (metabolic rate≥250 pmol/min/mg protein)

Cc1ccc(C(c2ccc3c(nnn3C)c2C)C(C)(C)C(=O)O)cc1CN1Cc2cc3ncccc3cc2OC2(CC2)C1 (single isomer, unassigned) [Example 86, 3-(3-((3′H-spiro[cyclopropane-1,2′-[1,4]oxazepino[7,6-g]quinoline]-4′ (5′H)-yl)methyl)-4-methylphenyl)-3-(1,4-dimethyl-1H-benzo[d][1,2,3]triazol-5-yl)-2,2-dimethylpropanoic Acid]
Human metabolic rate [2]: E (metabolic rate≥250 pmol/min/mg protein)

CC[C@@H]1CN(Cc2cc(C(c3ccc4c(nnn4C)c3C)C3(C(=O)O)CCC3)ccc2C)Cc2cc3ncccc3cc2O1 (single isomer, unassigned) [Example 88]
Human metabolic rate [2]: E (metabolic rate≥250 pmol/min/mg protein)

CC[C@H]1CN(Cc2cc(C(c3ccc4c(nnn4C)c3C)C(C)(C)C(=O)O)ccc2C)Cc2ncc3ccccc3c2O1 (single isomer, unassigned) [Example 90]
Human metabolic rate [2]: C (150≤metabolic rate<200 pmol/min/mg protein)

CC[C@@H]1CN(Cc2cc(C(c3ccc4c(nnn4C)c3C)C(C)(C)C(=O)O)ccc2C)Cc2ccccc2O1 (single isomer, unassigned) [Example C2, reference compound]
Human metabolic rate [2]: E (metabolic rate≥250 pmol/min/mg protein)

CC[C@H]1CN(Cc2cc(C(c3ccc4c(nnn4C)c3C)C(C)(C)C(=O)O)ccc2C)Cc2cc3ncccc3cc2O1 (single isomer, unassigned; diastereomer 1) [Example 57-(c)]
inhibition at 0.1 µM [1]: ≥ 50%
Human metabolic rate [2]: C (150≤metabolic rate<200 pmol/min/mg protein)

CCCC1CN(Cc2cc(C(c3ccc4c(nnn4C)c3C)C(C)(C)C(=O)O)ccc2C)Cc2cc3ncccc3cc2O1 (centres unmarked) [Example 78-(b), 3-(1,4-dimethyl-1H-benzo[d][1,2,3]triazol-5-yl)-2,2-dimethyl-3-(4-methyl-3-((2-propyl-2,3-dihydro-[1,4]oxazepino[7,6-g]quinolin-4 (5H)-yl)methyl)phenyl)propanoic Acid]
NQO1 expression induction activity (NQO1; Dose 20 mg/kg, oral, 20 mg/kg): B (3<NQO1 expression induction ratio≤6)
Human metabolic rate [2]: B (100≤metabolic rate<150 pmol/min/mg protein)
